This note sets out measurements from ChEMBL document CHEMBL1158115, “Acylphloroglucinol derivatives from Hypericum prolificum” (J Nat Prod, 2006).

Calls of active or inactive are those of the source. The calls are words filed in the database; no cut-off is given here.

One assay concerns NCI-H460. As to the kind of experiment: Cytotoxicity against human NCI-H460 cells by MTT assay. Type of assay: functional, cell-based.
Another assay has as its system MCF7. Put plainly: Cytotoxicity against human MCF7 cells by MTT assay. In kind it is functional, cell-based.
Another assay relates to SF-268. As to the kind of experiment: Cytotoxicity against human SF-268 cells by MTT assay. In kind it is functional, cell-based.
The test system of the next assay is HCT-116. Put plainly: Cytotoxicity against human HCT116 cells by MTT assay. In kind it is functional, cell-based.
The next assay concerns AGS. Put plainly: Cytotoxicity against human AGS cells by MTT assay. In kind it is functional, cell-based.
In assay [1] the target is T1, Prostaglandin G/H synthase 2 (Homo sapiens) (UniProt P35354).
T1 sequence (whole entry): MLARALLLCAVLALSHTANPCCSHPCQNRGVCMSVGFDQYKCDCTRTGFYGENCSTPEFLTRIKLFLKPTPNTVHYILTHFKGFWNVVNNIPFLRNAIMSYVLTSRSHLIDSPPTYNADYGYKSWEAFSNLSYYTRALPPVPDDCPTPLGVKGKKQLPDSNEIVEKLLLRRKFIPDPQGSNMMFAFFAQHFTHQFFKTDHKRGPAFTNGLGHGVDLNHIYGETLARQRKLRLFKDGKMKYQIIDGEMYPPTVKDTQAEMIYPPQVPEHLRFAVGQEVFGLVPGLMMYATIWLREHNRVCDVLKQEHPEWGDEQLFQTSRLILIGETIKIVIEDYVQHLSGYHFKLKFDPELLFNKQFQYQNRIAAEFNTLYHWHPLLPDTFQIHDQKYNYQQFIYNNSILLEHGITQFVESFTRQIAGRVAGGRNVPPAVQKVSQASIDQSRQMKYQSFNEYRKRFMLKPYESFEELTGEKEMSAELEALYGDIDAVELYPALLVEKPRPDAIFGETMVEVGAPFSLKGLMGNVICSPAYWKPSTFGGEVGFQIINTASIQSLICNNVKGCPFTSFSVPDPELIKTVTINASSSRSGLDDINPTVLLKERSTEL
Put plainly: Inhibition of cyclooxygenase 2 at 103.7 uM.

Assay [2] deals with Prostaglandin G/H synthase 1 (Homo sapiens) (UniProt P23219). Put plainly: Inhibition of cyclooxygenase 1 at 103.7 uM.
Chain of Prostaglandin G/H synthase 1 (Homo sapiens) (P23219 whole entry): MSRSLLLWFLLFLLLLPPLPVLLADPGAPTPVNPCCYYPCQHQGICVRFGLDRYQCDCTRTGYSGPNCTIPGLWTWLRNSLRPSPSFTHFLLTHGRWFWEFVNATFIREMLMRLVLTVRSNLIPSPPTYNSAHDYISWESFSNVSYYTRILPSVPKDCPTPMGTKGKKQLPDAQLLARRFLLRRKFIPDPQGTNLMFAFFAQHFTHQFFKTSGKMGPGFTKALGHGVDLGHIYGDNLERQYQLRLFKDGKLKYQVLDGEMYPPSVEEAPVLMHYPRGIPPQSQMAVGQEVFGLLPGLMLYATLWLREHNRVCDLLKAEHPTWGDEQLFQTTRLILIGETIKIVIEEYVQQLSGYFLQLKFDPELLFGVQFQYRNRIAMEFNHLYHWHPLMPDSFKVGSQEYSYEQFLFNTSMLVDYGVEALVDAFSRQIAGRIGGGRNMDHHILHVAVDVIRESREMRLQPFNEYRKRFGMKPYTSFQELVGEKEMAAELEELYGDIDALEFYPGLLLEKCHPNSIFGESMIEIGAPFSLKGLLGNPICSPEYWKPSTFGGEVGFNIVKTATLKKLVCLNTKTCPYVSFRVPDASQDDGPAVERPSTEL

Consider `COc1cccc2c1C(=O)c1c(O)c3c(c(O)c1C2=O)C[C@@](O)(C(=O)CO)C[C@@H]3O[C@H]1C[C@H](N)[C@H](O)[C@H](C)O1` [DOXORUBICIN], for which the concentration for half-maximal inhibition (IC50) in the assay with NCI-H460 was found to be 0.66 µM; in the assay on MCF7, 0.43 µM; in the assay on SF-268, 1.55 µM; with HCT-116, 0.41 µM; in the assay with AGS, 0.31 µM.

With `CCC(C)C(=O)c1c(O)cc(O)c2c1O[C@](C)(CC/C=C(\C)CCC=C(C)C)[C@@H](CC=C(C)C)C2` (stereo partly specified) [PROLIFICIN A], the IC50 with NCI-H460 is 29.9 µM; with MCF7 it was 23.7 µM; with SF-268, 30.9 µM; in the assay with HCT-116, 35.1 µM; in the assay with AGS it was 32.4 µM. Also, the result in assay [1] and in assay [2] was inactive.

With `CC(C)=CCC/C(C)=C/CC[C@]1(C)[C@@H](CC=C(C)C)CC2C(=O)C1(C(=O)C(C)C)C(=O)C=C2O` (stereo partly specified), the outcome (with NCI-H460; in assay [1]; in the assay with MCF7; with SF-268; in the assay on HCT-116; in assay [2]) was inactive. Further, the result in the assay on AGS was inactive.

With `CCC(C)C(=O)C12C(=O)C=C(O)C(C[C@H](CC=C(C)C)[C@@]1(C)CC/C=C(\C)CCC=C(C)C)C2=O` (stereo partly specified), the result (in the assay on NCI-H460; in assay [1]; in the assay with MCF7; in the assay on SF-268; in the assay on HCT-116; in assay [2]) was inactive. Also, the outcome in the assay with AGS was inactive.
